Among the data in patent US10653688B2, “6-(6-membered heteroaryl and aryl)isoquinolin-3-yl carboxamides and preparation and use thereof” (Samumed, LLC, priority 2017, dated 2020) are EC50 and inhibition values, retold here.

Assay [1] concerns LL29 cells (primary human fibroblasts derived from IPF patients), α-smooth muscle actin. The experiment in a line: Inhibition of fibrotic process: TGF-β1-treated primary human fibroblasts, αSMA staining.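 On all read-outs here: controls were TGF-β1-stimulated wells with DMSO vehicle as the positive reference and cells given DMSO alone as the negative reference.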 The following applies: Homo sapiens, Fibroblast; for EC50: 96 h, TGF-β1 20 ng/mL, 4 days, % cells positive for αSMA; for inhibition at 10 µM: read-out: percent inhibition at 10 μM (given for EC50 >10 μM), TGF-β1, αSMA, 10 μM. Type of assay: cell-based.

The target of assay [2] is recombinant GSK3β kinase (Homo sapiens (Human), UniProt P49841). The experiment in a line: GSK3β kinase assay (Ser/Thr 09 peptide Z-lyte, FRET).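 Further: FRET read-out as coumarin over fluorescein emission ratio, compounds incubated one hour at room temperature, IC50 from dose-response curve fit.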 Type of assay: biochemical.
Sequence of recombinant GSK3β kinase (P49841 whole entry): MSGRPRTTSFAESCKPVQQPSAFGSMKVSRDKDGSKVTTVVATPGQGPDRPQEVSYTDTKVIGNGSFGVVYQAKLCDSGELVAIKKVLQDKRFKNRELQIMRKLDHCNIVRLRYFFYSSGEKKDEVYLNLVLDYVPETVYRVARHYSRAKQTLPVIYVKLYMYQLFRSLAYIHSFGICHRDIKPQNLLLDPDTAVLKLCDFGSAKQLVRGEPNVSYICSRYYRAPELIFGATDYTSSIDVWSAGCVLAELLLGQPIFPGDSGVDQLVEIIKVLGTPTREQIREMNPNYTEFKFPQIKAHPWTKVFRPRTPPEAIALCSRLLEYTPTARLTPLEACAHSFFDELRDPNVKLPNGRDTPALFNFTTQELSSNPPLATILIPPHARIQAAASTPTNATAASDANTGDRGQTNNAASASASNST
Assay [3] has as its system Cyclin D1 phosphorylation at Threonine 286 (pCcnD1) over total Cyclin D1 in SH-SY5Y cells. The experiment in a line: phosphoCcnD1 to total CcnD1 ratio (PTT) cell-based assay, western blot. The following applies: Homo sapiens, 48 hours. The method, then: Representative compounds were screened using the cell-based assay procedure for the ratio of signal of Cyclin D1 phosphorylation at Threonine 286 (pCcnD1) over the signal of total Cyclin D1 (CcnD1) (abbreviated: phosphoCcnD1 to total CcnD1 ratio, or PTT) as described below.
SH-SY5Y cells (human neuroblastoma, Sigma, Saint-Louis, Mo.) were cultured in 1:1 DMEM/F-12 medium supplemented with 15% FBS, 1% non-essential amino acid, and 1% penicillin/streptomycin.
SH-SY5Y cells were seeded at 1.0×10^5 cells in 1 mL per well in a 24-well plate. After cell adherence was confirmed, DMSO-resuspended Samumed compounds were dispensed to eight wells as a serial dilution from 10 μM to 4.6 nM final concentration in medium, or at 1.1 μM to 4.6 nM with particularly potent compounds. Cells were exposed to Samumed compounds for 48 hours in a 37° C. incubator.
Wells of compound-treated cells were visually checked for cell death before being washed with 500 μL per well of 1×DPBS supplemented with phosphatase inhibitor diluted to 1×. Cells were then lysed with 90 μL 1×RIPA buffer supplemented with phosphatase and protease inhibitors (each diluted to a final 1×). After scraping, 60 μL of cell lysate from each sample was used to dilute 4×LDS (ThermoFisher, NP0007) and 20×XT reducing agent (Bio-Rad, 1610792), each diluted to 1× final. All samples were then denatured via boiling at 95° C. Denatured cell sample lysates were directly tested for pCcnD1 and total CcnD1 signal by Western blot techniques and analysis. Specifically, denatured lysates were directly transferred to NuPAGE™ 4-12% Bis-Tris Midi Protein Gels, 26-well gels (ThermoFisher, WG1403BOX). Gels were transferred to […] nitrocellulose membranes via iBlot™ Transfer Stack, nitrocellulose, regular size (ThermoFisher, IB301031). Membranes were blocked with 1×TBS, 5% milk (Bio-Rad, 1706404XTU) before being probed for overnight with either anti-pCcnD1 primary antibody (Cell Signaling Technology, 2978S) or anti-total CcnD1 primary antibody (Cell Signaling Technology, 3300S) diluted 1:500 in 1×TBS-0.05% Tween-20, 3% milk. After overnight incubation in primary antibodies, membranes were washed profusely with 1×TBS-0.05% Tween-20 and probed for 1 hour with secondary anti-rabbit/HRP conjugate (Cell Signaling Technology, 7074S) diluted 1:1000 in 1×TBS-0.05% Tween-20, 3% milk. After incubation in secondary antibody, membranes were washed with 1×TBS-0.05% Tween-20.
Probed and washed membranes were developed for pCcnD1 or total CcnD1 signal with SuperSignal™ West Femto Maximum Sensitivity Substrate (ThermoFisher, 34096) using the ChemoDoc-It^2 (UVP) and related GelDocIt imaging software. Blots were then stripped, blocked, stained with anti-β-actin/HRP conjugate antibody (Cell Signaling Technology, 5125S), developed, and imaged for housekeeping β-actin protein control as previously described. Densitometry was measured with ImageJ (NIH) and signal was used to plot, draw the curves fitting, and determine the EC50 values in GraphPad Prism for tested Samumed compounds.
On the technique in general: A western blot detects proteins with antibodies after separation by electrophoresis.

Assay [4] relates to IL-6 in human peripheral blood mononuclear cells (huPBMCs). The experiment in a line: IL-6 inhibition in LPS-stimulated human peripheral blood mononuclear cells (HTRF). The format is cell-based. The following applies: Homo sapiens, PBMC; for EC50: LPS 50 ng/mL, 22 hours, IL-6 HTRF; for inhibition at 10 µM: read-out: percent inhibition at 10 μM (given for EC50 >10 μM), LPS, IL-6, 10 μM. Summed up: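 Compound-treated huPBMCs (1×10e6 cells/mL, 1% FBS-RPMI) were stimulated after 2 h with LPS (50 ng/mL) for another 22 h at 37° C. An anti-IL-6 HTRF pair reported IL-6 as the 665/620 nm ratio; activity relative to DMSO, EC50 by 4-parameter Levenberg-Marquardt fitting, duplicates.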
In general terms: In TR-FRET formats the signal depends on donor and acceptor labels being close together.

The target of assay [5] is recombinant DYRK1A kinase (Homo sapiens (Human), UniProt Q13627). The experiment in a line: DYRK1A kinase assay (Ser/Thr 18 peptide Z-lyte, FRET).
Setting [6] is: GSK3β kinase, head says EC50, method says IC50, ATP 46 μM.
The mark [7] stands for this setting: DYRK1A kinase, head says EC50, method says IC50, ATP 30 μM.

For orientation: EC50 means the midpoint of the concentration-response curve. Usually inhibition stands for the drop in the measured response relative to a control, in per cent.

Molecules are shown by their SMILES. Read-outs that look alike come from different tables or passages of the source.

`O=C(Nc1cc2cc(-c3cncc(NC4CCNCC4)n3)ccc2cn1)C1CCCCC1` [Compound 44, N-(6-(6-(piperidin-4-ylamino)pyrazin-2-yl)isoquinolin-3-yl) cyclohexanecarboxamide]: the half-maximal effective concentration (EC50) is 401 nM in assay [1]; 193 nM in assay [2] (setting [6]); 4 nM in assay [3]; 0.375 µM in assay [4]; 1 nM in assay [5] (setting [7]).

Consider `Cc1nccn1CC(=O)Nc1cc2cc(-c3cccnc3)ccc2cn1` [Compound 14, 2-(2-Methyl-1H-imidazol-1-yl)-N-(6-(pyridin-3-yl)isoquinolin-3-yl) acetamide], for which the EC50 in assay [1] stood at 2240 nM; in assay [2] (setting [6]) it was 111 nM; in assay [3], 205 nM; in assay [4] it was 9.03 µM; in assay [5] (setting [7]) it was 7 nM.

In the case of `[2H]C1([2H])OC([2H])([2H])C([2H])([2H])N(CC(=O)Nc2cc3cc(-c4cccnc4)ccc3cn2)C1([2H])[2H]` [Compound 151, 2-(Morpholino-d8)-N-(6-(pyridin-3-yl)isoquinolin-3-yl)acetamide], the EC50 is more than 10000 nM in assay [1]; 795 nM in assay [2]; 16 nM in assay [3]; more than 10 µM in assay [4]; 13 nM in assay [5]. In addition, the inhibition at 10 µM was 21.2% in assay [1] and 6% in assay [4].

Regarding `COc1cncc(-c2ccc3cnc(NC(=O)C4CCN(C)CC4)cc3c2)c1` [Compound 33, N-(6-(5-Methoxypyridin-3-yl)isoquinolin-3-yl)-1-methylpiperidine-4-carboxamide], the EC50 came to 481 nM in assay [1]; 957 nM in assay [2] (setting [6]); 9100 nM in assay [3]; 3.65 µM in assay [4]; 4 nM in assay [5] (setting [7]).

Take `CN1CCC(C(=O)Nc2cc3cc(-c4cncc(C#N)c4)ccc3cn2)CC1` [Compound 32, N-(6-(5-Cyanopyridin-3-yl)isoquinolin-3-yl)-1-methylpiperidine-4-carboxamide]: the EC50 in assay [1] was 8400 nM; in assay [2] (setting [6]), 6660 nM; in assay [3] it was 1 nM; in assay [4], more than 10 µM; in assay [5] (setting [7]), 57 nM. The inhibition at 10 µM in assay [4] was determined as 5.1%.

In the case of `CN1CCN(c2cc(C(=O)Nc3cc4cc(-c5cnc6ocnc6c5)ccc4cn3)ccn2)CC1` [Compound 132, 2-(4-Methylpiperazin-1-yl)-N-(6-(oxazolo[5,4-b]pyridin-6-yl)isoquinolin-3-yl)isonicotinamide], the EC50 in assay [1] was 1350 nM; in assay [2] (setting [6]), more than 10000 nM; in assay [3], more than 10000 nM; in assay [4] it was more than 10 µM; in assay [5] (setting [7]), 14 nM. Further, the inhibition at 10 µM in assay [4] came out at 8.5%.

On to `CN1CCC(C(=O)Nc2cc3cc(-c4cnccn4)ccc3cn2)CC1` [Compound 75, 1-Methyl-N-(6-(pyrazin-2-yl)isoquinolin-3-yl)piperidine-4-carboxamide], for which the EC50 was 1370 nM in assay [1]; 1390 nM in assay [2]; 447 nM in assay [3]; more than 10 µM in assay [4]; 10 nM in assay [5]. Also, in assay [4], the inhibition at 10 µM was found to be 27.5%.

For `CC(C)CN1CCCC(C(=O)Nc2cc3cc(-c4cnccn4)ccc3cn2)CC1` (stereo not shown) [Compound 81, 1-Isobutyl-N-(6-(pyrazin-2-yl)isoquinolin-3-yl)azepane-4-carboxamide], the 50% effective concentration (EC50) in assay [1] is 5460 nM; in assay [2] (setting [6]), 1300 nM; in assay [3] it was 3000 nM; in assay [4], more than 10 µM; in assay [5] (setting [7]) it was 29 nM. In assay [4], the inhibition at 10 µM is 1.6%.

In the case of `O=C(CN1CCCC1)Nc1cc2cc(-c3cncc(F)c3)ccc2cn1` [Compound 18, N-(6-(5-Fluoropyridin-3-yl)isoquinolin-3-yl)-2-(pyrrolidin-1-yl)acetamide], the EC50 in assay [1] is 5970 nM; in assay [2] (setting [6]), 1180 nM; in assay [3] it was 123 nM; in assay [4], more than 10 µM; in assay [5] (setting [7]), 39 nM. The inhibition at 10 µM in assay [4] came to 5.8%.

As for `O=C(Nc1cc2cc(-c3cncc(CN4CCCC4)c3)ccc2cn1)C1CC1` [Compound 51, N-(6-(5-(Pyrrolidin-1-ylmethyl)pyridin-3-yl)isoquinolin-3-yl) cyclopropanecarboxamide], the half-maximal effective concentration (EC50) was 4230 nM in assay [1]; 175 nM in assay [2] (setting [6]); 974 nM in assay [3]; 3 µM in assay [4]; 7 nM in assay [5] (setting [7]).

`CN1CCN(Cc2cncc(-c3ccc4cnc(NC(=O)C5CC5)cc4c3)c2)CC1` [Compound 56, N-(6-(5-((4-Methylpiperazin-1-yl)methyl)pyridin-3-yl)isoquinolin-3-yl) cyclopropanecarboxamide]: the half-maximal effective concentration (EC50) in assay [1] came out at 5130 nM; in assay [2] (setting [6]) it was 609 nM; in assay [3], 45 nM; in assay [4], 9.5 µM; in assay [5] (setting [7]) it was 5 nM.

Turning to `CN1CCN(CC(=O)Nc2cc3cc(-c4cncc(F)c4)ccc3cn2)CC1` [Compound 20, N-(6-(5-Fluoropyridin-3-yl)isoquinolin-3-yl)-2-(4-methylpiperazin-1-yl) acetamide], the EC50 in assay [1] is 3140 nM; in assay [2] it was 3280 nM; in assay [3], 355 nM; in assay [4], more than 10 µM; in assay [5], 31 nM. Further, the inhibition at 10 µM in assay [4] was 3.6%.

In the case of `CN1CCC(C(=O)Nc2cc3cc(-c4cccnc4)ccc3cn2)CC1` [Compound 8, 1-Methyl-N-(6-(pyridin-3-yl)isoquinolin-3-yl)piperidine-4-carboxamide], the EC50 in assay [1] was found to be 398 nM; in assay [2] (setting [6]), 652 nM; in assay [3], 36 nM; in assay [4], 1.97 µM; in assay [5] (setting [7]), 2 nM.

On to `COc1cncc(-c2ccc3cnc(NC(=O)CN4CCOCC4)cc3c2)c1` [Compound 147, N-(6-(5-Methoxypyridin-3-yl)isoquinolin-3-yl)-2-morpholinoacetamide], for which the EC50 in assay [1] was more than 10000 nM; in assay [2] (setting [6]), 1020 nM; in assay [3] it was 359 nM; in assay [4], more than 10 µM; in assay [5] (setting [7]), 20 nM. Besides, the results for the inhibition at 10 µM in assay [1] and in assay [4] were 24.4% and 14.7%, respectively.

For the molecule `O=C(Nc1cc2cc(-c3cncc(NC4CCNCC4)n3)ccc2cn1)C1CCOCC1` [Compound 109, N-(6-(6-(Piperidin-4-ylamino)pyrazin-2-yl)isoquinolin-3-yl)tetrahydro-2H-pyran-4-carboxamide], the half-maximal effective concentration (EC50) in assay [1] was 27 nM; in assay [2] (setting [6]), 264 nM; in assay [3], 412 nM; in assay [4], 0.674 µM; in assay [5] (setting [7]) it was 2 nM.

For `O=C(CCN1CCOCC1)Nc1cc2cc(-c3cncc(F)c3)ccc2cn1` [Compound 23, N-(6-(5-Fluoropyridin-3-yl)isoquinolin-3-yl)-3-morpholinopropanamide], the concentration giving a half-maximal response (EC50) is 1630 nM in assay [1]; 602 nM in assay [2]; 80 nM in assay [3]; more than 10 µM in assay [4]; 17 nM in assay [5]. Further, the inhibition at 10 µM in assay [4] was found to be 8.6%.
